This passage reports IC50 results from patent publication US10112929B2, “Lactams as inhibitors of rock” (BRISTOL-MYERS SQUIBB COMPANY, priority 2015, dated 2018).

SMILES strings stand for the structures. Counter-ions that a name gives are not always drawn. Like-named read-outs stand apart in the source and are kept apart here. Some results are limits rather than exact numbers.

Experiment [1] concerns the target T1, ROCK2 (Homo sapiens (Human), UniProt O75116).
Experiment [2] addresses T1, ROCK2. In words: biochemical.
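Also: rho kinase enzyme reaction halted with EDTA, phospho- and non-phospho peptide separated for read-out, kinase activity inhibition derived across a dose-response series, DMSO under 2%.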

T1 sequence (O75116 whole entry, species assumed): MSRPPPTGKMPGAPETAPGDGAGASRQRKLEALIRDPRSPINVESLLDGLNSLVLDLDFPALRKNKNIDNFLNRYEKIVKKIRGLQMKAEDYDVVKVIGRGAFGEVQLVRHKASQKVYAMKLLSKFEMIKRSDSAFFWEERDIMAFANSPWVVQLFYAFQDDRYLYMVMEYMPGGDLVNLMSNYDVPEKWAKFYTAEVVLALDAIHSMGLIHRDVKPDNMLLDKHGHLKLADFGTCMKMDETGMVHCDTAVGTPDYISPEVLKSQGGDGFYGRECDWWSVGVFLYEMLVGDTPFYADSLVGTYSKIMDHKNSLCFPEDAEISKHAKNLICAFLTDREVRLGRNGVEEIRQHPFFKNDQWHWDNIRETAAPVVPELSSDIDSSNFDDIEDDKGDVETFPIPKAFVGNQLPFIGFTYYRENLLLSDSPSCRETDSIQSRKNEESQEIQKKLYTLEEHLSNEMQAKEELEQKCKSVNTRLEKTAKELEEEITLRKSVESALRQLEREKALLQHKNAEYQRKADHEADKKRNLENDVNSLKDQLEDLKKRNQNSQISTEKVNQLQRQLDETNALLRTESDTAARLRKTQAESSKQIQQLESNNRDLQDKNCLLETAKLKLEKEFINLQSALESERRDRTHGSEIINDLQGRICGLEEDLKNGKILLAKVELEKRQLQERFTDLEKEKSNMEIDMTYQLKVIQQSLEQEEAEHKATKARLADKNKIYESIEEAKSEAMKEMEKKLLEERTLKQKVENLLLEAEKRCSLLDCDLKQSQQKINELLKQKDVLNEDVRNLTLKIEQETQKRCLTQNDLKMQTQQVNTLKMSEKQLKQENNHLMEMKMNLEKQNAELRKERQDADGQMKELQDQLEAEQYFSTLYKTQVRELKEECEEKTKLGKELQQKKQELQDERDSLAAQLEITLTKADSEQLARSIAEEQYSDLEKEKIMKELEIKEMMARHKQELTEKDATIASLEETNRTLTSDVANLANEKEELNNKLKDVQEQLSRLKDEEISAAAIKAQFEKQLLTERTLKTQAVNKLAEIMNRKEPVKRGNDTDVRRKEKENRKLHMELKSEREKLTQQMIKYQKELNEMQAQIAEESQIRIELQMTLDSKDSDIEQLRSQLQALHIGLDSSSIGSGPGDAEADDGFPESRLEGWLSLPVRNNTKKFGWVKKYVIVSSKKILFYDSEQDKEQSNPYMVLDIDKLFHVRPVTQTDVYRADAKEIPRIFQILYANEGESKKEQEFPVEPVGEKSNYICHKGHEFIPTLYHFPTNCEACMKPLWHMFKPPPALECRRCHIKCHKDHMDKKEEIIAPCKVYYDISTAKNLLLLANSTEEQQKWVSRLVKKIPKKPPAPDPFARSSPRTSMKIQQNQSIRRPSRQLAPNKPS

Consider `COc1cc(NC2CCN(c3ccc(-c4cn[nH]c4)cc3F)C2=O)ccc1F` (single isomer, unassigned) [Example 331, 3-((4-fluoro-3-methoxyphenyl)amino)-1-(2-fluoro-4-(1H-pyrazol-4-yl)phenyl) pyrrolidin-2-one], for which, in experiment [1], the half-maximal inhibitory concentration (IC50) was 10 to 100 nM.

In experiment [1], `COc1cccc(OC2CCN(c3ccc(-c4ccc5cn[nH]c5c4)c(OC)n3)C2=O)c1` (single isomer, unassigned) [Example 125, 1-(5-(1H-indazol-6-yl)-6-methoxypyridin-2-yl)-3-(3-methoxyphenoxy)pyrrolidin-2-one] came in with an IC50 of 100 to 2200 nM.

Regarding `COc1cc(N2CCC(Nc3c(F)cccc3OC)C2=O)ccc1-c1cn[nH]c1` (single isomer, unassigned) [Example 136, 3-((2-fluoro-6-methoxyphenyl)amino)-1-(3-methoxy-4-(1H-pyrazol-4-yl)phenyl) pyrrolidin-2-one], the half-inhibitory concentration (IC50) in experiment [1] fell in the range of 10 to 100 nM.

In the case of `COc1cccc(NC2CCN(c3ccc(-c4cn[nH]c4)nc3)C2=O)c1` (single isomer, unassigned) [Example 298, 1-(6-(1H-pyrazol-4-yl)pyridin-3-yl)-3-((3-methoxyphenyl)amino)pyrrolidin-2-one], the IC50 in experiment [1] lay in the range of 10 to 100 nM.

With `COc1cc(F)cc(NC2CCN(c3ccc(-c4cn[nH]c4)c(OC)n3)C2=O)c1` (single isomer, unassigned) [Example 199, 3-((3-fluoro-5-methoxyphenyl)amino)-1-(6-methoxy-5-(1H-pyrazol-4-yl)pyridin-2 yl)pyrrolidin-2-one], in experiment [1], the concentration for half-maximal inhibition (IC50) is below 10 nM.

`COc1cc(F)ccc1NC1CCN(c2ccc(-c3cn[nH]c3)c(OC)c2)C1=O` (single isomer, unassigned) [Example 144, 3-((4-fluoro-2-methoxyphenyl)amino)-1-(3-methoxy-4-(1H-pyrazol-4-yl)phenyl) pyrrolidin-2-one] yielded a 50% inhibitory concentration (IC50) in experiment [1] of 100 to 2200 nM.

In experiment [1], `Cc1nc(N2CCC(Nc3cccc(OCC4CC4)c3)C2=O)ccc1-c1cn[nH]c1` (single isomer, unassigned) [Example 191, 3-((3-(cyclopropylmethoxy)phenyl)amino)-1-(6-methyl-5-(1H-pyrazol-4-yl)pyridin-2-yl)pyrrolidin-2-one] showed an IC50 of 10 to 100 nM.

In the case of `COc1cc(NC2CCN(c3ccc(-c4cn[nH]c4)c(C#N)c3)C2=O)ccc1F` (single isomer, unassigned) [Example 380, 5-(3-((4-fluoro-3-methoxyphenyl)amino)-2-oxopyrrolidin-1-yl)-2-(1H-pyrazol-4-yl)benzonitrile], in experiment [1], the IC50 was in the range of 100 to 2200 nM.

For `COc1cc(F)cc(NC2CCN(c3ncc(-c4cn[nH]c4)cc3F)C2=O)c1` (single isomer, unassigned) [Example 360, 1-(3-fluoro-5-(1H-pyrazol-4-yl)pyridin-2-yl)-3-((3-fluoro-5-methoxyphenyl)amino) pyrrolidin-2-one], the 50% inhibitory concentration (IC50) in experiment [1] fell in the range of 100 to 2200 nM.

For the compound `COc1cccc(NC2CCN(c3ccc(-c4ccnc(N)c4)cc3)C2=O)c1` (single isomer, unassigned) [Example 77, 1-(4-(2-aminopyridin-4-yl)phenyl)-3-((3-methoxyphenyl)amino)pyrrolidin-2-one], in experiment [2], the IC50 was 10 to 100 nM.

On to `Nc1cccc(OC2CCN(c3ccc(-c4cn[nH]c4)cc3)C2=O)c1` (stereo not shown) [Example 113, 1-(4-(1H-pyrazol-4-yl)phenyl)-3-(3-aminophenoxy)pyrrolidin-2-one, TFA], for which the IC50 in experiment [2] fell in the range of 10 to 100 nM.

`COc1cccc(N[C@H]2C(=O)N(c3ccc(-c4cn[nH]c4)cc3)C[C@@H]2CO)c1` [Example 133, (3R,4S)-1-(4-(1H-Pyrazol-4-yl)phenyl)-4-(hydroxymethyl)-3-((3-methoxyphenyl)amino) pyrrolidin-2-one] returned an IC50 in experiment [2] below 10 nM.

As to `COc1cccc(N(CCO)C2CCN(c3ccc(-c4cn[nH]c4)cc3)C2=O)c1` (stereo not shown) [Example 12, 1-(4-(1H-pyrazol-4-yl)phenyl)-3-((2-hydroxyethyl)(3-methoxyphenyl)amino)pyrrolidin-2-one], in experiment [2], the concentration for half-maximal inhibition (IC50) lay within 10 to 100 nM.

For the compound `COc1c(F)cccc1NC1CCN(c2ccc(-c3cn[nH]c3)c(C#N)c2)C1=O` (single isomer, unassigned) [Example 376, 5-(3-((3-fluoro-2-methoxyphenyl)amino)-2-oxopyrrolidin-1-yl)-2-(1H-pyrazol-4-yl)benzonitrile], in experiment [2], the IC50 fell in the range of 100 to 2200 nM.

`COc1cc(N2CCC(Nc3cccc(NS(C)(=O)=O)c3)C2=O)ccc1-c1cn[nH]c1` (stereo not shown) [Example 73, N-(3-((1-(3-methoxy-4-(1H-pyrazol-4-yl)phenyl)-2-oxopyrrolidin-3-yl)amino)phenyl)methanesulfonamide] gave a half-inhibitory concentration (IC50) in experiment [2] of 10 to 100 nM.

Regarding `COc1cccc(NC2CCN(c3ccc(-c4cn[nH]c4)cc3F)C2=O)c1` (single isomer, unassigned) [Example 328, 1-(2-fluoro-4-(1H-pyrazol-4-yl)phenyl)-3-((3-methoxyphenyl)amino)pyrrolidin-2-one], the IC50 in experiment [2] was 10 to 100 nM.

`COc1cc(F)cc(NC2CCN(c3ccc(-c4cn[nH]c4)c(C)n3)C2=O)c1` (single isomer, unassigned) [Example 193, 3-((3-fluoro-5-methoxyphenyl)amino)-1-(6-methyl-5-(1H-pyrazol-4-yl)pyridin-2-yl)pyrrolidin-2-one]: the IC50 in experiment [2] was below 10 nM.

`O=C1C(Nc2cccc(OC(F)F)c2)CCN1c1ccc(-c2cn[nH]c2)c(F)c1` (single isomer, unassigned) [Example 355, 3-((3-(difluoromethoxy)phenyl)amino)-1-(3-fluoro-4-(1H-pyrazol-4-yl)phenyl) pyrrolidin-2-one]: the 50% inhibitory concentration (IC50) in experiment [2] fell in the range of 10 to 100 nM.

For `COc1cccc(OC2CCN(c3ccc(-c4ccc5[nH]ncc5c4)c(OC)n3)C2=O)c1` (single isomer, unassigned) [Example 123, 1-(5-(1H-indazol-5-yl)-6-methoxypyridin-2-yl)-3-(3-methoxyphenoxy)pyrrolidin-2-one], the IC50 in experiment [2] fell in the range of 100 to 2200 nM.

The compound `COc1cccc(NC2CCN(c3ccc(-c4ccnc(N)n4)cc3)C2=O)c1` (single isomer, unassigned) [Example 78, 1-(4-(2-aminopyrimidin-4-yl)phenyl)-3-((3-methoxyphenyl)amino)pyrrolidin-2-one] came in with an IC50 in experiment [2] of 10 to 100 nM.

Take `COc1cc(N2CCC(Nc3cc(F)cc(F)c3)C2=O)ccc1-c1cn[nH]c1` (single isomer, unassigned) [Example 146, 3-((3,5-difluorophenyl)amino)-1-(3-methoxy-4-(1H-pyrazol-4-yl)phenyl) pyrrolidin-2-one]: the half-maximal inhibitory concentration (IC50) in experiment [2] is below 10 nM.

In experiment [2], `CCc1cc(N2CCC(Nc3cccc(OC)c3)C2=O)ncc1-c1cn[nH]c1` (single isomer, unassigned) [Example 203, 1-(4-ethyl-5-(1H-pyrazol-4-yl)pyridin-2-yl)-3-((3-methoxyphenyl)amino) pyrrolidin-2-one] had a concentration for half-maximal inhibition (IC50) of 100 to 2200 nM.

As to `COc1cc(NC2CCN(c3ccc(-c4cn[nH]c4)c(OC)c3)C2=O)ccc1F` (single isomer, unassigned) [Example 155, 3-((4-fluoro-3-methoxyphenyl)amino)-1-(3-methoxy-4-(1H-pyrazol-4-yl)phenyl) pyrrolidin-2-one], the half-maximal inhibitory concentration (IC50) in experiment [2] is below 10 nM.

Compound `COc1cccc(NC2CCN(c3ccc(-c4cn[nH]c4)c(OC)n3)C2=O)c1C` (stereo not shown) [Example 117, 3-((3-Methoxy-2-methylphenyl)amino)-1-(6-methoxy-5-(1H-pyrazol-4-yl)pyridin-2-yl)pyrrolidin-2-one] showed an IC50 in experiment [2] below 10 nM.

Take `COc1cc(NC2CCN(c3ccc(-c4cn[nH]c4)c(F)c3F)C2=O)ccc1F` (single isomer, unassigned) [Example 307, 1-(2,3-difluoro-4-(1H-pyrazol-4-yl)phenyl)-3-((4-fluoro-3-methoxyphenyl)amino)pyrrolidin-2-one]: the IC50 in experiment [2] was in the range of 10 to 100 nM.

Consider `CCOc1cccc(NC2CCN(c3ccc(-c4cn[nH]c4)cc3)C2=O)c1` (stereo not shown) [Example 6, 1-(4-(1H-pyrazol-4-yl)phenyl)-3-((3-ethoxyphenyl)amino)pyrrolidin-2-one], for which the IC50 in experiment [2] was below 10 nM.

`O=C1C(Nc2cccc(OC(F)(F)F)c2)CCN1c1ccc(-c2cn[nH]c2)cc1` (stereo not shown) [Example 8, 1-(4-(1H-pyrazol-4-yl)phenyl)-3-((3-(trifluoromethoxy)phenyl)amino)pyrrolidin-2-one] gave an IC50 in experiment [2] of 10 to 100 nM.

`COc1cc(F)ccc1NC1CCN(c2ccc(-c3cn[nH]c3)c(OC)c2)C1=O` (single isomer, unassigned) [Example 143, 3-((4-fluoro-2-methoxyphenyl)amino)-1-(3-methoxy-4-(1H-pyrazol-4-yl)phenyl) pyrrolidin-2-one]: the IC50 in experiment [2] is 100 to 2200 nM.

`O=C1C(Nc2ccc3c(c2)OC(F)(F)O3)CCN1c1ccc(-c2cn[nH]c2)cc1` (single isomer, unassigned) [Example 53, 1-(4-(1H-pyrazol-4-yl)phenyl)-3-((2,2-difluorobenzo[d][1,3]dioxol-5-yl)amino)pyrrolidin-2-one] registered an IC50 in experiment [2] of 100 to 2200 nM.

For the compound `O=C1C(Cc2ccccc2)CCN1c1ccc(-c2cn[nH]c2)cc1` (stereo not shown) [Example 92, 1-(4-(1H-pyrazol-4-yl)phenyl)-3-benzylpyrrolidin-2-one], in experiment [2], the concentration for half-maximal inhibition (IC50) fell in the range of 100 to 2200 nM.

As to `COc1cccc(NC2CCN(c3ccc(-c4cn[nH]c4)c(C)n3)C2=O)c1` (single isomer, unassigned) [Example 189, 3-((3-methoxyphenyl)amino)-1-(6-methyl-5-(1H-pyrazol-4-yl)pyridin-2-yl)pyrrolidin-2-one], the IC50 in experiment [2] was below 10 nM.

As for `COc1ccc(N2CCN(C3CCN(c4ccc(-c5cn[nH]c5)c(OC)n4)C3=O)CC2)cc1` (racemic) [Example 287, 1-(6-methoxy-5-(1H-pyrazol-4-yl)pyridin-2-yl)-3-(4-(4-methoxyphenyl)piperazin-1-yl)pyrrolidin-2-one dihydrochloride], the half-inhibitory concentration (IC50) in experiment [2] is 100 to 2200 nM.

In the case of `COc1cccc(NC2CCN(c3ccc(-c4c[nH]nc4C)c(OC)n3)C2=O)c1` (racemic) [Example 129, 1-(6-methoxy-5-(3-methyl-1H-pyrazol-4-yl)pyridin-2-yl)-3-((3-methoxyphenyl)amino)pyrrolidin-2-one], in experiment [2], the IC50 was below 10 nM.

With `COc1cccc(NC2CCN(c3ccc(-c4cn[nH]c4)c(C(F)F)c3)C2=O)c1` (single isomer, unassigned) [Example 175, 1-(3-(difluoromethyl)-4-(1H-pyrazol-4-yl)phenyl)-3-((3-methoxyphenyl)amino) pyrrolidin-2-one], in experiment [2], the concentration for half-maximal inhibition (IC50) was 100 to 2200 nM.

The term IC50 denotes the point on the concentration scale where inhibition reaches its midpoint. Higher therefore signals weaker potency.
